System: 293T cells
Assay: Cytotoxicity test (CCK-8 cell viability) in 293T cells
Assay type: cell-based, human
Conditions: 293T cell line
Experimental: Human undifferentiated neuroblastoma cell line SH-SY5Y and human embryonic kidney cell line (HEK)-293T were purchased from Korean Cell Line Bank (Korea) and Takara (Japan), respectively. Cells were grown in HyClone Minimal Essential Medium (MEM) and Dulbecco's Modified Eagle Medium (DMEM), respectively, supplemented with 10% (v/v) fetal bovine serum (FBS), penicillin (100 U/mL), and streptomycin ([…]). Cells were maintained in a humidified atmosphere of 95% air and 5% CO2 at 37° C. Cells were passaged 10 times at maximum. Cells were dissociated using 0.05% trypsin-EDTA solution and the cells were seeded in new culture dishes for maintenance.
To examine the cytotoxicity of compounds described herein in human cell lines, SH-SY5Y and 293T cells were used. Approximately 8,000 cells (for 293T) and 15,000 cells (for SH-SY5Y) were plated per well of a 96-well plate (SPL Life Sciences Co., Ltd., Pocheon, Korea). After incubating at 37° C. for 24 hours in a humidified atmosphere containing 5% CO2, the culture medium was replaced by a series of concentrations of test compounds diluted in the corresponding culture medium.
The time of co-incubation was 24 hours and six replicates were made for each measurement. Finally, 10 μL of CCK-8 reagent (Dojindo Laboratories, Rockville, MD) was added to each well, and after incubation at 37° C. for 3 minutes, the OD at 450 nm was measured using a multifunction microplate reader (Tecan Infinite M200 Pro). These measurements were compared to that of a control and expressed as a percentage of the control to calculate cell viability. The IC50 value was calculated using SPSS software. To do this, the absorbance of the blank wells with only growth medium is subtracted from the values or the wells with cells. The readout value of background (vehicle) was set as a 100% viability, and then the percent viability for each test solution was calculated.
The data was presented as the mean value and standard error of the mean (S.E.M.). Statistical analysis was performed with the one-way ANOVA with Tukey's post hoc test (GraphPad Prism 5 software package, version 5.02, GraphPad Software Inc. USA). Significance was accepted at p<0.05.
The cytotoxicity of the compound was evaluated by treating cells with BnH12003 and measuring cell viability.
By treating cells with various BnH12 series compounds and measuring cell viability using the experimental procedure described in Example 2, the cytotoxicity of the compounds was evaluated.

| SMILES | Cell viability test results (CCK) 10 uM [%<] | Cell viability test results (CCK) 100 uM [%<] |
| --- | --- | --- |
| C[C@H]1CC[C@@H](C(=O)O)CN1C(=O)Cc1ccc(-c2ccc(F)cc2)cc1 [BnH12002, (3R,6S)-1-(2-(4′-fluoro-8 1,l′-biphenyl9-4-yl)acetyl)-6-methylpiperidine-3-carboxylic acid] | 90 | 95 |
| O=C(NO)[C@H]1CCCN1C(=O)Cc1ccc(-c2cncnc2)cc1 [BnH12015, (R)-N-hydroxy-1-(2-(4-(pyrimidin-5-yl)phenyl)acetyl) pyrrolidine-2-carboxamide] | 99 | 99 |
| C[C@H]1CC[C@@H](C(=O)O)CN1C(=O)Cc1ccc2nccnc2c1 [BnH12036, (3R,6S)-6-methyl-1-(2-(quinoxalin-6-yl)acetyl) piperidine-3-carboxylic acid] | 95 | 95 |
| C[C@H]1CC[C@@H](C(=O)O)CN1C(=O)Cc1ccc2c(c1)OCCO2 [BnH12037] | 99 | 99 |
| C[C@H]1CC[C@@H](C(=O)O)CN1C(=O)Cc1ccc(-c2ccccc2)cc1 [BnH12042] | 95 | 90 |
| C[C@H]1CC[C@@H](C(=O)O)CN1C(=O)Cc1ccc(-c2ccncc2)cc1 [BnH12043, (3R,6S)-6-methyl-1-(2-(4-(pyridin-4-yl)phenyl)acetyl) piperidine-3-carboxylic acid] | 99 | 99 |
| C[C@H]1CC[C@@H](C(=O)O)CN1C(=O)Cc1ccc(-c2ccccn2)cc1 [BnH12044, (3R,6S)-6-methyl-1-(2-(4-(pyridin-2-yl)phenyl)acetyl) piperidine-3-carboxylic acid] | 80 | 75 |
| C[C@H]1CC[C@@H](C(=O)O)CN1C(=O)Cc1ccc(-c2ncc(F)cn2)cc1 [BnH12049, (3R,6S)-1-(2-(4-(5-fluoropyrimidin-2-yl)phenyl)acetyl)-6-methylpiperidine-3-carboxylic acid] | 90 | 85 |
| C[C@H]1CC[C@@H](C(=O)O)CN1C(=O)Cc1ccc(-c2cnc(C3CC3)nc2)cc1 [BnH12052, (3R,6S)-1-(2-(4-(2-cyclopropylpyrimidin-5-yl)phenyl)acetyl)-6-methylpiperidine-3-carboxylic acid] | 80 | 75 |
| C[C@H]1CC[C@@H](C(=O)O)CN1C(=O)Cc1ccc(-c2ccncn2)cc1 [BnH12054, (3R,6S)-6-methyl-1-(2-(4-(pyrimidin-4-yl)phenyl)acetyl) piperidine-3-carboxylic acid] | 99 | 99 |
| C[C@H]1CC[C@@H](C(=O)O)CN1C(=O)Cc1ccc(-c2cccs2)cc1 [BnH12055, (3R,6S)-6-methyl-1-(2-(4-(thiophen-2-yl)phenyl)acetyl) piperidine-3-carboxylic acid] | 90 | 60 |
| C[C@H]1CC[C@@H](C(=O)O)CN1C(=O)Cc1ccc(-c2ccco2)cc1 [BnH12056, (3R,6S)-1-(2-(4-(furan-2-yl)phenyl)acetyl)-6-methylpiperidine-3-carboxylic acid] | 95 | 90 |
| C[C@H]1CC[C@@H](C(N)=O)CN1C(=O)Cc1ccc(-c2ncc(F)cn2)cc1 [BnH12059, (3R,6S)-1-(2-(4-(5-fluoropyrimidin-2-yl)phenyl)acetyl)-6-methylpiperidine-3-carboxamide] | 90 | 70 |
| C[C@H]1CC[C@@H](C(=O)O)CN1C(=O)Cc1ccc(-c2ccc([N+](=O)[O-])cc2)cc1 [BnH12077, (3R,6S)-6-methyl-1-(2-(4'-nitro-[1,1'-biphenyl]-4-yl)acetyl)piperidine-3-carboxylic acid] | 99 | 60 |
